This series deals with UACC 903 melanoma cells. Kind of series: Thermal stability in DMSO at 60° C., efficacy by MTS assay. To be noted: DMSO solution. A general note: Tetrazolium dyes change colour on reduction, which living cells bring about.

A value given as a limit tells only on which side of the number the result lay.

Two compounds from patent US10010504B2, “Compositions and methods including celecoxib and plumbagin relating to treatment of cancer” (The Penn State Research Foundation, priority 2013, dated 2018) can be followed below.

Consider `Cc1ccc(-c2cc(C(F)(F)F)nn2-c2ccc(S(N)(=O)=O)cc2)cc1` [celecoxib, 4-[5-(4-Methylphenyl)-3-(trifluoromethyl)-1H-pyrazol-1-yl]benzenesulfonamide], for which the “heating time acceptable without decreasing efficacy” value is at most 20 min. Regarding `CC1=CC(=O)c2c(O)cccc2C1=O` [plumbagin, 5-hydroxy-2-methyl-1,4-napthoquinone], the “effect of prolonged exposure to 60° C. on compound activity” value was “did not affect compound activity”.
